Counter-ions that a name gives are not always drawn. Marks after values point to notes of the source that are not given here.
Columns and labels:
Type in all cases: physicochemical
[1] = Heating experiments and VT-XRPD (N2 drying, heating, cooling back): form change; conditions: for form change after N2 drying (VT-XRPD): N2-drying for 20 min at 30° C.
Excerpt: (§1) For XRPD analysis, a PANalytical Empyrean and X′ Pert3 X-ray powder diffract meter was used.

[2] = Physical form stability on storage at RT, air drying or exposure to ambient conditions (XRPD); conditions: exposure to ambient conditions for ~30 min
Excerpt: as §1

[3] = Approximate solubility estimated by stepwise solvent addition (RT and 50° C.)
Protocol: Approximate solubility values of sulfate Type A (824511-04-A) were estimated in 10 solvents to guide the solvent selection in the polymorph screening, with results summarized in TABLE 16B.
Approximate solubility of oxalate Type B (824511-04-C) was estimated in 10 solvents to guide the solvent selection in polymorph screening of oxalate, and the results were summarized in TABLE 19C.
Procedure: weigh ~2 mg solids into each 3-mL glass vial, add in corresponding solvent stepwise and sonicate or oscillate to see if solids dissolved completely. Stop adding solvent till the solids dissolves or total volume reaches 1.0 mL. Calculate the approximate solubility based on solvent volume.
The approximate solubility of mesylate Type A (824511-23-B) was estimated in 10 solvents to guide the solvent selection in polymorph screening of the mesylate, with results summarized in TABLE 22C.
Approximate solubility of HBr salt Type A (824511-29-B) was estimated in 10 solvents to guide the solvent selection in polymorph screening of HBr salt, with data summarized in TABLE 25B.
Approximate solubility of tosylate Type B (824511-23-A-0628) was estimated in 40 solvents to guide the solvent selection in polymorph screening of tosylate, with data summarized in TABLE 27B.
Approximate solubility of besylate Type B (824511-44-C2) was estimated in 38 solvents to guide the solvent selection in polymorph screening of besylate, with results shown in TABLE 31.

[4] = approximate solubility in EtOAc at RT
[5] = approximate solubility in H2O at RT
[6] = approximate solubility in MeOH at RT
[7] = approximate solubility in n-Heptane at RT

COCC[C@H]1CC2CN3CCc4c([nH]c5ccccc45)[C@](C(=O)OC)(C2)[C@H]13 [tosylate Type F, 18-methoxycoronaridine]
form change after heating (XRPD) ([1]; heating to 90° C.): form change to tosylate Type B

COCC[C@H]1CC2CN3CCc4c([nH]c5ccccc45)[C@](C(=O)OC)(C2)[C@H]13 [besylate Type C, 18-methoxycoronaridine]
form change after exposure to ambient conditions (XRPD) [2]: converted back to besylate Type A

COCC[C@H]1CC2CN3CCc4c([nH]c5ccccc45)[C@](C(=O)OC)(C2)[C@H]13 [HCl salt Type F, 18-methoxycoronaridine]
Form change after treatment ([1]; Heat to 165~170° C. under N2, XRPD form): HCl salt Type K* | Form after heating ([1]; solid form by XRPD after heating, cells marked *, **, # have footnotes that are not shown): HCl salt Type K^#

COCC[C@H]1CC2CN3CCc4c([nH]c5ccccc45)[C@](C(=O)OC)(C2)[C@H]13 [oxalate Type B, 18-methoxycoronaridine]
Solubility (mg/mL) [3, 4]: S<1.8 mg/mL | Solubility (mg/mL) [3, 5]: S>38.0 mg/mL | Solubility (mg/mL) [3, 6]: S>44.0 mg/mL | Solubility (mg/mL) [3, 7]: S<2.1 mg/mL

COCC[C@H]1CC2CN3CCc4c([nH]c5ccccc45)[C@](C(=O)OC)(C2)[C@H]13 [besylate Type A, 18-methoxycoronaridine]
form change after heating (XRPD/VT-XRPD) ([1]; heating to 100° C.): a new form was observed and assigned as besylate Type C

COCC[C@H]1CC2CN3CCc4c([nH]c5ccccc45)[C@](C(=O)OC)(C2)[C@H]13 [sulfate Type A, 18-methoxycoronaridine]
Solubility (mg/mL) ([3]; CHCl3, RT, approximate): S<1.9 mg/mL | Solubility (mg/mL) ([3]; DCM, RT, approximate): S<2.1 mg/mL | Solubility (mg/mL) ([3]; EtOAc, RT, approximate): S<2.0 mg/mL | Solubility (mg/mL) ([3]; MeOH, RT, approximate): S>44.0 mg/mL | Solubility (mg/mL) ([3]; THF, RT, approximate): S<1.9 mg/mL | Solubility (mg/mL) ([3]; Toluene, RT, approximate): S<2.2 mg/mL | Solubility (mg/mL) ([3]; n-Heptane, RT, approximate): S<1.8 mg/mL | form change after N2 drying (VT-XRPD) [1]: no obvious form change | form change after heating (XRPD/VT-XRPD) ([1]; heating to 120° C.): no obvious form change

COCC[C@H]1CC2CN3CCc4c([nH]c5ccccc45)[C@](C(=O)OC)(C2)[C@H]13 [tosylate Type B, 18-methoxycoronaridine]
Approximate solubility ([3]; 50° C., 1,4-Dioxane/n-heptane (1:2) v:v): S<1.9 mg/mL | Approximate solubility ([3]; 50° C., IPAc): S<2.2 mg/mL | Approximate solubility ([3]; 50° C., MTBE): S<2.1 mg/mL | Approximate solubility ([3]; 50° C., Toluene): S<1.9 mg/mL | Approximate solubility ([3]; 50° C., n-Heptane): S<2.0 mg/mL | Approximate solubility ([3]; RT, 2-MeTHF): S<2.1 mg/mL | Approximate solubility ([3]; RT, ACN/toluene (4:1) v:v): S>42.0 mg/mL | Approximate solubility ([3]; RT, Acetone/n-heptane (4:1) v:v): S<2.0 mg/mL | Approximate solubility ([3]; RT, CHCl3): S>40.0 mg/mL | Approximate solubility ([3]; RT, CHCl3/toluene (1:4) v:v): S<1.9 mg/mL | Approximate solubility ([3]; RT, EtOAc, little solid in the vial): S<2.1^& mg/mL | Approximate solubility ([3]; RT, EtOH): S>40.0 mg/mL | Approximate solubility ([3]; RT, EtOH/n-hexane (3:1) v:v): S>42.0 mg/mL | Approximate solubility ([3]; RT, H2O): S<2.0 mg/mL | Approximate solubility ([3]; RT, MeOH): S>44.0 mg/mL | Approximate solubility ([3]; RT, THF/H2O (87:13) v:v): S>42.0 mg/mL | Approximate solubility ([3]; RT, n-Heptane): S<2.0 mg/mL

COCC[C@H]1CC2CN3CCc4c([nH]c5ccccc45)[C@](C(=O)OC)(C2)[C@H]13 [tosylate Type E, 18-methoxycoronaridine]
form change after heating (XRPD) ([1]; heating to 80° C. and cooling back to RT): no form change | form change after heating (XRPD) ([1]; heating to 101° C. and cooling back to RT): a sample with weak crystallinity and similar to tosylate Type B was obtained

COCC[C@H]1CC2CN3CCc4c([nH]c5ccccc45)[C@](C(=O)OC)(C2)[C@H]13 [sulfate Type E, 18-methoxycoronaridine]
form change after heating (XRPD/VT-XRPD) ([1]; heating to 100° C.): no form change

COCC[C@H]1CC2CN3CCc4c([nH]c5ccccc45)[C@](C(=O)OC)(C2)[C@H]13 [mesylate Type A, 18-methoxycoronaridine]
Solubility (mg/mL) ([3]; approximate solubility in Acetone at RT): S<2.3 mg/mL | Solubility (mg/mL) ([3]; approximate solubility in CHCl3 at RT): S>42.0* mg/mL | Solubility (mg/mL) [3, 4]: S<2.2 mg/mL | Solubility (mg/mL) [3, 5]: S>42.0* mg/mL | Solubility (mg/mL) [3, 6]: S>40.0 mg/mL | Solubility (mg/mL) ([3]; approximate solubility in THF at RT): S<2.0 mg/mL | Solubility (mg/mL) [3, 7]: S<2.0 mg/mL | form change after N2 drying (VT-XRPD) [1]: no form change | form change after heating (XRPD/VT-XRPD) ([1]; heating to 100° C.): no obvious form change
